From patent US12435061B2 (priority 2020, dated 2025)
pIC50: −log10 of the molar value. Where two headings read alike, the source gives them in different places.

Molecular target: hTRPV3 (Homo sapiens (Human), UniProt Q8NET8)
Assay: Whole-cell patch clamp, hTRPV3 Phase 1 / Phase 2 currents
Assay type: cell-based
Settings: for pIC50: inward, whole-cell patch clamp
Source text: Whole-cell patch clamp experiments permit the detection of currents through the TRPV3 channel in the cell line described above. A glass electrode is brought into contact with a single cell and the membrane is then ruptured, permitting control of the voltage of the cell membrane and measurement of currents flowing across the membrane using the amplifier attached to the electrode. A perfusion system permits control of the extracellular solution, including the addition of blockers and activators of the current. The current can be activated by heating this solution to 28° C. or warmer or by addition of 20 μM 2-APB to the solution.
TRPV3 cells were induced 20-48 hours, removed from growth plates, and replated at low density (to attain good single-cell physical separation) on glass coverslips for measurement. In some cases, cells were grown in low density overnight on glass coverslips. Patch clamp recordings were made in the whole-cell mode with a holding potential of −40 mV. Every 5 seconds, a voltage ramp was applied from −120 to +100 mV, 400 ms in duration. Currents elicited were quantified at −80 mV and +80 mV. […] External solution was Ringer's solution described above.
P1 refers to the Phase 1 current for human (h) TRPV3, and P2 refers to the Phase 2 current for human (h) TRPV3.
In Tables 3 and 4, Phase 1 refers to Phase 1 current for human (h) TRPV3 or rat (r) TRPV3, and Phase 2 refers to Phase 2 current for human (h) TRPV3 or rat (r) TRPV3. The hTRPV3 and rTRPV3 assays were performed as described herein. hERG refers to the inhibition the human ERG (hERG) channel. NaV1.5, refers to the pore forming aL-subunit of the voltage-dependent cardiac Na(+) channel and is an integral membrane protein involved in the initiation and conduction of action potentials. hTRPV3 HAMA IC50 refers to the IC50 of TRPV3 cells stably expressed in TRex-293 cells. Solubility Ringer refers to the compounds' solubility in Ringer's solution. LM T1/2 refers to liver microsome half-lives in either rat or human liver microsomes. FLIPR IC50 refers to the IC50 of the test compounds against recombinant hTRPV3 cells.

[1] = Phase 1 current, read-out: hTRPV3 Patch P1 Inwd
[2] = Phase 1 current, read-out: hTRPV3 (nM) (Phase 1)
[3] = Phase 2 current, read-out: hTRPV3 Patch P2 Inwd
[4] = Phase 2 current, read-out: hTRPV3 (nM) (Phase 2)
[5] = Phase 1 current, human TRPV3, read-out: hTRPV3 (nM) Phase 1

Chain of hTRPV3 (Q8NET8 whole entry): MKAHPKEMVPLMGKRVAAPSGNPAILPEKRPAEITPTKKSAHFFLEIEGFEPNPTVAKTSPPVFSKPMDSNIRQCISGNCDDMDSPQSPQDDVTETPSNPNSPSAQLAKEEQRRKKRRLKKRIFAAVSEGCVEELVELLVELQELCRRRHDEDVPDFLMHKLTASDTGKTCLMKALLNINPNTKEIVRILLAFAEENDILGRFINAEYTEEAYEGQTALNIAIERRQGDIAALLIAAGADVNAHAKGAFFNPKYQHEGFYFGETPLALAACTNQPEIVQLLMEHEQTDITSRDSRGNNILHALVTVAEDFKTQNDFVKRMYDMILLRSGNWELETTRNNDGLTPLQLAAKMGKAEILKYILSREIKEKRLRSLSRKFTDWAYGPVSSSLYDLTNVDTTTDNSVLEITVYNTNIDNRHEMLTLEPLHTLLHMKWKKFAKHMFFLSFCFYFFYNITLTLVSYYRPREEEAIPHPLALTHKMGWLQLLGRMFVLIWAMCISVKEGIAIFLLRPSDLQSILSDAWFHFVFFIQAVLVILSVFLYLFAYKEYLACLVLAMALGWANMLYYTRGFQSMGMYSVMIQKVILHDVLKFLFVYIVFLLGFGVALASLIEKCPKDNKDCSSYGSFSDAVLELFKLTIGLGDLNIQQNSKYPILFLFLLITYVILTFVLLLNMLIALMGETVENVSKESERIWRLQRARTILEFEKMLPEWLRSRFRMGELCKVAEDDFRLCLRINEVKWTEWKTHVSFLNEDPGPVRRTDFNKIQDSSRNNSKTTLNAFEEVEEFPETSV

## Oc1cc(-c2ccccc2)ccc1N1CC[C@@H](Oc2ccc(C(F)(F)F)cn2)C1 [Compound 1-89, (R)-4-(3-(5-(trifluoromethyl)pyridin-2-yloxy)pyrrolidin-1-yl)biphenyl-3-ol]
[1]
  pIC50: < 6.00
[2]
  IC50: > 3200 nM
[3]
  pIC50: < 6.00
[4]
  IC50: > 3200 nM

## Cc1cccnc1O[C@H]1CCN(c2ccc(-c3ccccc3C#N)nc2CO)C1 [Compound 1-192, (S)-2-(6-(hydroxymethyl)-5-(3-(3-methylpyridin-2-yloxy)pyrrolidin-1-yl)pyridin-2-yl)benzonitrile]
[1]
  pIC50: < 6.00
[2]
  IC50: > 3200 nM
[3]
  pIC50: < 6.00
[4]
  IC50: ~2750 nM

## CN(C(=O)c1ccc(N2CC[C@H](Oc3ncccc3Cl)C2)c(CCO)c1)c1ccccc1 [Compound 1-337, (S)-4-(3-(3-chloropyridin-2-yloxy)pyrrolidin-1-yl)-3-(2-hydroxyethyl)-N-methyl-N-phenylbenzamide]
[1]
  pIC50: < 6.00
[2]
  IC50: > 3200 nM

## O=C(c1cscn1)N1CCC(c2ccc(-c3ccccc3C3CC3)cc2CO)C1 (centres unmarked) [Compound 2-111, (3-(2′-cyclopropyl-3-(hydroxymethyl)biphenyl-4-yl)pyrrolidin-1-yl)(thiazol-4-yl)methanone]
[5]
  IC50: 194 nM
[1]
  pIC50: 6.00 to 7.00

## CC(C)c1ccccc1Oc1ccc(N2CC[C@H](Oc3ncccc3Cl)C2)c(CO)c1 [Compound 1-271, (S)-(2-(3-(3-chloropyridin-2-yloxy)pyrrolidin-1-yl)-5-(2-isopropylphenoxy)phenyl)methanol]
[1]
  pIC50: > 8.00
[2]
  IC50: 2.01 nM

## Cc1ccccc1-c1ccc(N2CC[C@H](Oc3ccc(F)cn3)C2)c(CO)n1 [Compound 1-207, (S)-(3-(3-(5-fluoropyridin-2-yloxy)pyrrolidin-1-yl)-6-o-tolylpyridin-2-yl)methanol]
[1]
  pIC50: 6.00 to 7.00
[2]
  IC50: 283 nM

## O=C(Nc1ccc(F)cc1)c1ccc(N2CC[C@H](Oc3ncccc3Cl)C2)c(CCO)c1 [Compound 1-319, (S)-4-(3-(3-chloropyridin-2-yloxy)pyrrolidin-1-yl)-N-(4-fluorophenyl)-3-(2-hydroxyethyl)benzamide]
[1]
  pIC50: < 6.00
[2]
  IC50: 3440 nM

## CCc1ccccc1Oc1ccc(C2CC(=O)N(Cc3cccc(C)n3)C2)c(C(N)=O)c1 (centres unmarked) [Compound 2-98, 5-(2-ethylphenoxy)-2-(1-((6-methylpyridin-2-yl)methyl)-5-oxopyrrolidin-3-yl)benzamide]
[5]
  IC50: > 3200 nM
[1]
  pIC50: < 6.00

## OCc1nc(-c2ncccn2)ccc1N1CC[C@H](Oc2ccc(C(F)(F)F)cn2)C1 [Compound 1-245, (S)-(6-(pyrimidin-2-yl)-3-(3-(5-(trifluoromethyl)pyridin-2-yloxy)pyrrolidin-1-yl)pyridin-2-yl)methanol]
[1]
  pIC50: < 6.00
[2]
  IC50: > 3200 nM

## Cc1ccc(O[C@H]2CCN(c3ccc(-c4ccccn4)nc3CO)C2)nc1 [Compound 1-244, (S)-(5-(3-(5-methylpyridin-2-yloxy)pyrrolidin-1-yl)-2, 2′-bipyridin-6-yl)methanol]
[1]
  pIC50: < 6.00
[2]
  IC50: 4650 nM

## CCc1ccccc1C(O)c1ccc(N2CC[C@H](Nc3ncccc3Cl)C2)c(CCO)c1 (stereo partly drawn) [Compound 1-385, 2-(2-((S)-3-(3-chloropyridin-2-ylamino)pyrrolidin-1-yl)-5-((2-ethylphenyl)(hydroxy)methyl)phenyl)ethanol]
[1]
  pIC50: < 6.00
[2]
  IC50: > 3200 nM

## OCc1cc(-c2ccccc2F)ccc1N1CC[C@H](Oc2ccc(C(F)(F)F)cn2)C1 [Compound 1-150, (S)-(2′-fluoro-4-(3-(5-(trifluoromethyl)pyridin-2-yloxy)pyrrolidin-1-yl)biphenyl-3-yl)methanol]
[1]
  pIC50: 7.00 to 8.00
[2]
  IC50: 71.7 nM
[3]
  pIC50: 7.00 to 8.00
[4]
  IC50: 74.7 nM

## N#Cc1nc(-c2ccccc2)ccc1N1CC[C@@H](Oc2ccc(C(F)(F)F)cn2)C1 [Compound 1-97]
[3]
  pIC50: < 6.00
[4]
  IC50: 2930 nM

## Cc1cccc(C(O)c2ccc(N3CC[C@H](Oc4ncccc4Cl)C3)c(CO)c2)c1 (stereo partly drawn) [Compound 1-281, (4-((S)-3-(3-chloropyridin-2-yloxy)pyrrolidin-1-yl)-3-(hydroxymethyl)phenyl)(m-tolyl)methanol]
[1]
  pIC50: < 6.00
[2]
  IC50: 1100 nM

## OCc1cc(Br)ccc1N1C[C@@H](O)[C@H](Oc2ccc(C(F)(F)F)cn2)C1 [Compound 1-284]
[1]
  pIC50: < 6.00
[2]
  IC50: 1630 nM

## Cc1cncc(C(=O)N2CCC(c3ccc(-c4ccccc4C4CC4)cc3CO)C2)n1 (centres unmarked) [Compound 2-109]
[5]
  IC50: 18.2 nM
[1]
  pIC50: 7.00 to 8.00

## FC(F)(F)c1ccc(O[C@H]2CCN(c3ccccc3OCc3ccccc3)C2)nc1 [Compound 1-26, (S)-2-(1-(2-(benzyloxy)phenyl)pyrrolidin-3-yloxy)-5-(trifluoromethyl)pyridine]
[1]
  pIC50: < 6.00

## NC(=O)c1cc(C2=NCCN2)ccc1N1CC[C@@H](Oc2ccc(C(F)(F)F)cn2)C1 [Compound 1-100, (R)-5-(4,5-dihydro-1H-imidazol-2-yl)-2-(3-(5-(trifluoromethyl)pyridin-2-yloxy)pyrrolidin-1-yl)benzamide]
hTRPV3 Patch P1 Inwd (nM)
  IC50: > 1000 nM
hTRPV3 Patch P2 Inwd (nM)
  IC50: > 1000 nM
read-out: hTRPV3 (nM) (Phase 1)
  IC50: > 3200 nM
read-out: hTRPV3 (nM) (Phase 2)
  IC50: > 3200 nM

## CCOC(=O)c1nc(-c2ccccc2)sc1N1CC[C@H](Oc2ccc(C(F)(F)F)cn2)C1 [Compound 1-206, (S)-ethyl 2-phenyl-5-(3-(5-(trifluoromethyl)pyridin-2-yloxy)pyrrolidin-1-yl)thiazole-4-carboxylate]
[1]
  pIC50: < 6.00
[2]
  IC50: 2670 nM

## Cc1ccc(O[C@H]2CCN(c3ccc(Oc4ccccc4)nc3CO)C2)nc1 [Compound 1-211]
[1]
  pIC50: 6.00 to 7.00
[2]
  IC50: 931 nM
[3]
  pIC50: 6.00 to 7.00
[4]
  IC50: 936 nM

## O=C(NCc1ccccc1)c1ccccc1N1CC[C@@H](Oc2ccc(C(F)(F)F)cn2)C1 [Compound 1-50, (R)—N-benzyl-2-(3-(5-(trifluoromethyl)pyridin-2-yloxy)pyrrolidin-1-yl)benzamide]
[1]
  pIC50: < 6.00
[3]
  pIC50: < 6.00

## O=C(NCCO)c1cc(-c2ccccc2)ccc1N1CC[C@H](Oc2ccc(C(F)(F)F)cn2)C1 [Compound 1-153, (S)—N-(2-hydroxyethyl)-4-(3-(5-(trifluoromethyl)pyridin-2-yloxy)pyrrolidin-1-yl)biphenyl-3-carboxamide]
[1]
  pIC50: < 6.00
[2]
  IC50: 4420 nM

## Cc1ccccc1N1CCC(Nc2ncc(C(F)(F)F)cc2Cl)C1 (centres unmarked) [Compound 1-371, 3-chloro-N-(1-o-tolylpyrrolidin-3-yl)-5-(trifluoromethyl)pyridin-2-amine]
[1]
  pIC50: < 6.00
[3]
  pIC50: < 6.00

## Cc1ccc(C(O)c2ccc(C3CCN(C(=O)c4ncccc4Cl)C3)c(CO)c2)cc1 (centres unmarked) [Compound 2-6, (3-chloropyridin-2-yl)(3-(4-(hydroxy(p-tolyl)methyl)-2-(hydroxymethyl)phenyl)pyrrolidin-1-yl)methanone]
[5]
  IC50: > 3200 nM
[1]
  pIC50: < 6.00

## O=C(c1ncccc1Cl)N1CCC(c2ccc(C(O)c3ccccc3Cl)cc2CO)C1 (centres unmarked) [Compound 2-11, (3-(4-((2-chlorophenyl)(hydroxy)methyl)-2-(hydroxymethyl)phenyl)pyrrolidin-1-yl)(3-chloropyridin-2-yl)methanone]
[5]
  IC50: > 3200 nM
[1]
  pIC50: < 6.00

## Cc1ccc(C(=O)c2ccc(N3CC[C@H](Oc4ncccc4Cl)C3)c(CCO)c2)cc1 [Compound 1-295, (S)-(4-(3-(3-chloropyridin-2-yloxy)pyrrolidin-1-yl)-3-(2-hydroxyethyl)phenyl)(p-tolyl)methanone]
[1]
  pIC50: 6.00 to 7.00
[2]
  IC50: ~225 nM
[3]
  pIC50: 6.00 to 7.00
[4]
  IC50: ~178 nM

## CC(C)c1ccccc1Oc1ccc(N2CC[C@H](Oc3ncccc3F)C2)c(CCO)c1 [Compound 1-331, (S)-2-(2-(3-(3-fluoropyridin-2-yloxy)pyrrolidin-1-yl)-5-(2-isopropylphenoxy)phenyl)ethanol]
[1]
  pIC50: 7.00 to 8.00
[2]
  IC50: 28 nM

## CC(C)Oc1cc(-c2ccccc2)ccc1N1CC[C@H](Oc2ccc(C(F)(F)F)cn2)C1 [Compound 1-77, (S)-2-(1-(3-isopropoxybiphenyl-4-yl)pyrrolidin-3-yloxy)-5-(trifluoromethyl)pyridine]
[1]
  pIC50: < 6.00
[2]
  IC50: > 3200 nM
[3]
  pIC50: < 6.00
[4]
  IC50: 1470 nM

## Cc1cccc(C(=O)c2ccc(C3CCN(C(=O)c4ncccc4Cl)C3)c(CO)c2)c1 (single isomer, unassigned) [Compound 2-3]
[1]
  pIC50: 7.00 to 8.00

## Cc1cccnc1O[C@H]1CCN(c2ccc(Oc3ccccc3)cc2C(N)=O)C1 [Compound 1-163]
[1]
  pIC50: < 6.00
[2]
  IC50: 2180 nM

## COc1ccc(Oc2ccc(N3CC[C@H](Oc4ccccn4)C3)c(CO)c2)cc1 [Compound 1-302]
[1]
  pIC50: 6.00 to 7.00
[2]
  IC50: 282 nM
